{"source": "paper PMC6017357", "about": "“In Vitro Inhibitory Effects of Synthetic Cannabinoid EAM-2201 on Cytochrome P450 and UDP-Glucuronosyltransferase Enzyme Activities in Human Liver Microsomes” (Molecules : A Journal of Synthetic Chemistry and Natural …, 2018)", "target": "T1, CYP2C8 (Homo sapiens, UniProt P10632)", "T1 sequence (P10632 1-490)": "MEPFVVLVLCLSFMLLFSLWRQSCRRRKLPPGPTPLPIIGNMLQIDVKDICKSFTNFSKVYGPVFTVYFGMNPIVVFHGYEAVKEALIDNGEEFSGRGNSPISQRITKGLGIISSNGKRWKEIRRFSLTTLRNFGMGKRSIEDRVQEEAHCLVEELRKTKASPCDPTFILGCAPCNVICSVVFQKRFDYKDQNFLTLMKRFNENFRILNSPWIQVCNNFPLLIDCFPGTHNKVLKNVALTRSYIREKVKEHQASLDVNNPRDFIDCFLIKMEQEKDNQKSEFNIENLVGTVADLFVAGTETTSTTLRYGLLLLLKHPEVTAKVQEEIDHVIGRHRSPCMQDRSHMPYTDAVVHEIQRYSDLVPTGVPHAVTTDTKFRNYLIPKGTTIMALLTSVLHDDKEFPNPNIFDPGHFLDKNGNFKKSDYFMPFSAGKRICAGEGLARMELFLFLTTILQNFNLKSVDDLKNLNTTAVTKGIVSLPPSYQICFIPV", "assay": "CYP2C8-catalyzed amodiaquine N-deethylation in human liver microsomes (IC50 and time-dependent inhibition)", "assay_type": "in vitro ADME", "design": "from tissue; host or cells: ultrapooled human liver microsomes", "description": "The inhibitory potential (IC50 values) of EAM-2201 on CYP1A2, CYP2A6, CYP2C8, CYP2C9, CYP2C19, CYP2D6 and CYP3A4 were evaluated using ultrapooled human liver microsomes and a cocktail of seven CYP substrates followed by LC-tandem mass spectrometry (LC-MS/MS) as previously described. Each incubation mixture was prepared in a total volume of 100 µL as follows: pooled human liver microsomes (5.2 pmol CYP), 1.0 mM NADPH, 10 mM magnesium chloride, 50 mM potassium phosphate buffer (pH 7.4), various concentrations of EAM-2201 in DMSO (final concentrations of 0.1–50 µM, 0.5% DMSO) and a cocktail of seven CYP probe substrates in 50% acetonitrile (0.5% acetonitrile), including 50 µM phenacetin, 2.5 µM coumarin, 2.0 µM amodiaquine, 10 µM diclofenac, 100 µM [S]-mephenytoin, 5 µM bufuralol and 2.5 µM midazolam in 50% acetonitrile. After a 3-min preincubation at 37 °C, the reactions were initiated by adding NADPH and incubation proceeded for 15 min at 37 °C in a shaking water bath. The reactions were stopped by adding 100 µL of ice-cold methanol containing internal standards (^13C2,^15N-acetaminophen for acetaminophen and N-desethylamodiaquine; d9-1′-hydroxybufuralol for 4′-hydroxydiclofenac, 7-hydroxycoumarin, 4′-hydroxymephenytoin, 1′-hydroxybufuralol and 1′-hydroxy-midazolam). The incubation mixtures were centrifuged at 13,000× g for 4 min at 4 °C and 50 µL of each supernatant was diluted in 50 µL of water. Aliquots (5 µL) of the diluted supernatants were analyzed using LC-MS/MS. All assays were performed in triplicate and the mean values were used in calculations. […] Each reaction was initiated by adding the seven-CYP probe substrate cocktail described above.\nThe time-dependent inhibitory effects of EAM-2201 on CYP2C8, CYP2C9, CYP2C19 and CYP3A4 activities in ultrapooled human liver microsomes were evaluated using time- and concentration-dependent inhibition assays. Ultrapooled human liver microsomes (26.0 pmol CYP) were pre-incubated with various concentrations of EAM-2201 in DMSO (0.5% DMSO) in 50 mM potassium phosphate buffer (pH 7.4) in the presence of NADPH for predetermined time periods: 5–15 min for CYP2C8 activity, 5–20 min for CYP2C9 activity and 15–40 min for CYP2C19 and CYP3A4 activities. […] Aliquots (5 µL) of the diluted supernatants were analyzed using LC-MS/MS.\nThe metabolites formed from CYP substrates were simultaneously quantified using our previously described LC-MS/MS method. […]"}
{"compound": "CCc1ccc(C(=O)c2cn(CCCCCF)c3ccccc23)c2ccccc12", "note": "[EAM-2201, (4-ethyl-1-naphthalenyl)[1-(5-fluoropentyl)-1H-indol-3-yl]-methanone]", "values": [{"measurement": "IC50", "value": 3, "unit": "µM"}, {"measurement": "inactivation efficiency (kinact/Ki), CYP2C8", "setting": "human liver microsomes", "value": 1953, "unit": "M⁻¹ s⁻¹"}, {"measurement": "kinact", "setting": "human, ultrapooled human liver microsomes, pH 7.4, probe amodiaquine (2 µM), N-deethylation, read-out: kinact, time-dependent inhibition of CYP2C8 amodiaquine N-deethylase (converted)", "value": 0.00105, "unit": "s⁻¹"}, {"measurement": "inhibition of CYP2C8-catalyzed amodiaquine N-deethylation", "setting": "up to 50 µM, without 30-min preincubation, human liver microsomes", "value": "negligibly inhibited"}]}
